From patent US10172869B2, “Progesterone receptor modulators for use in the therapy of uterine fibroids” (PregLem SA, priority 2013, dated 2019)

What was measured:
Type in all cases: in vivo, human
[1] = system: uterine fibroids; assay: Example 1 Phase III study: uterine bleeding, amenorrhea and return of menstruation (PBAC)
Experimental: (§1) Multicenter, Phase III Study to Investigate the Efficacy and Safety of 3-Months of Treatment with UPA Followed by 10 Days of Treatment with NETA or Placebo
(§2) All patients received a 3-month treatment course of UPA 10 mg once-daily followed by randomized oral NETA 10 mg once-daily or matching placebo for 10 days. UPA treatment was started during the first 4 days of menstruation. NETA or placebo was taken daily for the first 10 days following the cessation of UPA. The schedule incorporated the potential for women to enter an extension study involving repeated intermittent courses of UPA 10 mg.
(§3) In the clinical trial the effect of treatment of uterine fibroids have been assessed by means of parameters such as uterine bleeding using the pictorial blood-loss assessment chart (PBAC), condition of the uterus using transvaginal ultrasound (TVUS) and endometrial biopsy, endometrial histology using endometrial biopsy and pain using the Short-Form McGill Pain Questionnaire (SF-MPQ and quality of life using the Uterine Fibroid Symptom and Health-Related Quality of Life (UFS-QoL) questionnaire.
The efficacy end points were: percentage of amenorrheic patients at the end of UPA treatment; change from baseline in the volume of the three largest myomas to end of UPA treatment and 2 weeks after menstruation following end of NETA/placebo treatment; and change from baseline in pain and QoL to end of UPA treatment.
(§4) Exploratory endpoints included assessment of the strength of the first menstruation after UPA treatment (using PBAC), time to return of menstruation following treatment end, and frequency of post-treatment PAEC observed in the endometrial biopsy after return of menstruation.

[2] = Example 1 Phase III study: adverse events (TEAEs, SAEs)
Experimental: as §1, §2
(§5) The safety endpoints included the number and proportion of patients experiencing treatment-emergent adverse events (TEAEs), including clinically significant changes in vital signs, physical examination, gynecological or breast examination, electrocardiogram (ECG), ovarian ultrasound, changes from baseline in endometrial thickness and clinically significant changes in endometrium biopsy. Other safety endpoints were change from baseline in hematology, coagulation, biochemistry, lipids, adrenocorticotropic hormone (ACTH), thyroid stimulating hormone (TSH) and prolactin, as well as serum levels of estradiol (E2).

[3] = system: endometrium; assay: Example 1 Phase III study: endometrial histology (biopsy)
Experimental: as §1, §2, §3, §5, §4

[4] = system: endometrium; assay: Example 1 Phase III study: endometrial thickness; settings: after NETA double-blind treatment; 0% at screening
Experimental: as §1, §2, §5

[5] = system: myomas and heavy uterine bleeding; assay: Example 2 long-term extension study: uterine bleeding, amenorrhea and return of menstruation (PBAC)
Description: (§6) Long-Term Extension of a Multicenter, Phase III Study to Investigate the Efficacy and Safety of 3-Months of Treatment with UPA Followed by 10 Days of Treatment with NETA or Placebo in Subjects with Myomas and Heavy Uterine Bleeding
(§7) The study consisted of three periods of 3 months open-label UPA treatment, each followed by 10 days of double-blind treatment with NETA or placebo and then a drug-free period. Subjects were randomly assigned to a NETA or matching placebo arm with a 1:1 ratio.
In study described in Example 1, 251 subjects were screened at 21 sites and 209 subjects started treatment with UPA of which 202 attended the end of UPA treatment visit. Of those that completed study of Example 1 (190 subjects), 132 subjects from 19 sites opted to continue in to the extension study.
(§8) In the study of Example 1 and for each present study courses, UPA 10 mg was orally administered once daily for a period of 90 days, followed by 10 mg NETA or matching placebo once daily for a period of 10 days. The first treatment course in the present study consisted of 90 days UPA 10 mg treatment followed by 10 days of double-blind treatment (same as in Example 1 study) started between the first and fourth day of menstruation (inclusive) following visit after the end of treatment, or one month later if uterine sparing surgery had been performed and myomas were still present. The second and third treatment courses of the present study started on the first day of menstruation following visits after ends of each treatment courses, respectively.
(§9) Parameters assessed are the same as it was described in Example 1.

[6] = Example 2 long-term extension study: safety assessments (TEAEs, SAEs); settings: intermittent repeated administration schedule
Description: as §6, §7, §8, §9

[7] = system: endometrium; assay: Example 2 long-term extension study: endometrium thickness and endometrium biopsy; settings: after each treatment course
Description: as §6, §7, §8, §9

## C#C[C@]1(OC(C)=O)CC[C@H]2[C@@H]3CCC4=CC(=O)CC[C@@H]4[C@H]3CC[C@@]21C [NETA, norethindrone (norethisterone) acetate]
[1]; NETA 10 mg once-daily for 10 days after UPA, p≤0.001 vs placebo
  median return to menstruation following end of UPA treatment: 14.0 days
[1]; NETA treatment group, first menstruation following treatment completion compared to baseline, p=0.012 vs placebo
  median change in PBAC score: −122
[2]; double-blind treatment phase, 10 days after UPA
  women reporting events: 11.2%
[2]; post-treatment phase
  women with TEAEs: 26.5%
[3]; after NETA treatment
  extensive cyst formation (one of the features of PAEC): 2.4%
[3]; after treatment, 10.9% at screening
  percentage of non-physiological endometrial features: 22.6%
[3]; biopsy 12 weeks after UPA treatment
  endometrial polyp: one benign endometrial polyp
[3]; biopsy 12 weeks after UPA treatment, subgroup
  cases of PAEC: no case of PAEC
[4]
  percentage of women with endometrial thickness >16 mm: 3.5%
[5]; first menstruation after each treatment course
  heaviness of bleeding as measured by the PBAC score (days 1-8): decrease after each subsequent treatment course
[5]; treatment courses 1-4, NETA group compared to placebo group, p<0.001
  median times to return of menstruation following discontinuation of UPA: significantly shorter
[6]
  safety and tolerability assessment: did not raise any safety concerns
[7]
  endometrium thickness, comparison of the 2 treatment groups: placebo group were higher compared to those for the NETA group
